These results are taken from US6423689B1, “Peptidyl calcium channel blockers” (Warner-Lambert Company, priority 1997, dated 2002).

This experiment addresses T1, N-type Ca2+ channels in IMR-32 cells (Homo sapiens, UniProt Q00975).
T1 construct: host or cells: IMR-32 cells, differentiated with dibutyryl cAMP and bromodeoxyuridine
The experiment in a line: Inhibition of N-type calcium flux in IMR-32 cells (Indo-1 fluorescence, nitrendipine present). Type of experiment: cell-based. The note with it: for IC50: IMR-32 cells, 5 μM nitrendipine, K+ depolarization. A digest of the protocol: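 Differentiated IMR-32 cells (7–13 days) were loaded with 5 μM Indo-1 AM, preincubated with compound for 10 min at 30° C, and depolarized with KCl/CaCl2 stimulation solution, with 5 μM nitrendipine blocking L-channels. Peak-minus-basal 400/490 nm emission ratio was plotted against drug concentration, and IC50 came from four-parameter logistic fits.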

T1 sequence (Q00975 whole entry): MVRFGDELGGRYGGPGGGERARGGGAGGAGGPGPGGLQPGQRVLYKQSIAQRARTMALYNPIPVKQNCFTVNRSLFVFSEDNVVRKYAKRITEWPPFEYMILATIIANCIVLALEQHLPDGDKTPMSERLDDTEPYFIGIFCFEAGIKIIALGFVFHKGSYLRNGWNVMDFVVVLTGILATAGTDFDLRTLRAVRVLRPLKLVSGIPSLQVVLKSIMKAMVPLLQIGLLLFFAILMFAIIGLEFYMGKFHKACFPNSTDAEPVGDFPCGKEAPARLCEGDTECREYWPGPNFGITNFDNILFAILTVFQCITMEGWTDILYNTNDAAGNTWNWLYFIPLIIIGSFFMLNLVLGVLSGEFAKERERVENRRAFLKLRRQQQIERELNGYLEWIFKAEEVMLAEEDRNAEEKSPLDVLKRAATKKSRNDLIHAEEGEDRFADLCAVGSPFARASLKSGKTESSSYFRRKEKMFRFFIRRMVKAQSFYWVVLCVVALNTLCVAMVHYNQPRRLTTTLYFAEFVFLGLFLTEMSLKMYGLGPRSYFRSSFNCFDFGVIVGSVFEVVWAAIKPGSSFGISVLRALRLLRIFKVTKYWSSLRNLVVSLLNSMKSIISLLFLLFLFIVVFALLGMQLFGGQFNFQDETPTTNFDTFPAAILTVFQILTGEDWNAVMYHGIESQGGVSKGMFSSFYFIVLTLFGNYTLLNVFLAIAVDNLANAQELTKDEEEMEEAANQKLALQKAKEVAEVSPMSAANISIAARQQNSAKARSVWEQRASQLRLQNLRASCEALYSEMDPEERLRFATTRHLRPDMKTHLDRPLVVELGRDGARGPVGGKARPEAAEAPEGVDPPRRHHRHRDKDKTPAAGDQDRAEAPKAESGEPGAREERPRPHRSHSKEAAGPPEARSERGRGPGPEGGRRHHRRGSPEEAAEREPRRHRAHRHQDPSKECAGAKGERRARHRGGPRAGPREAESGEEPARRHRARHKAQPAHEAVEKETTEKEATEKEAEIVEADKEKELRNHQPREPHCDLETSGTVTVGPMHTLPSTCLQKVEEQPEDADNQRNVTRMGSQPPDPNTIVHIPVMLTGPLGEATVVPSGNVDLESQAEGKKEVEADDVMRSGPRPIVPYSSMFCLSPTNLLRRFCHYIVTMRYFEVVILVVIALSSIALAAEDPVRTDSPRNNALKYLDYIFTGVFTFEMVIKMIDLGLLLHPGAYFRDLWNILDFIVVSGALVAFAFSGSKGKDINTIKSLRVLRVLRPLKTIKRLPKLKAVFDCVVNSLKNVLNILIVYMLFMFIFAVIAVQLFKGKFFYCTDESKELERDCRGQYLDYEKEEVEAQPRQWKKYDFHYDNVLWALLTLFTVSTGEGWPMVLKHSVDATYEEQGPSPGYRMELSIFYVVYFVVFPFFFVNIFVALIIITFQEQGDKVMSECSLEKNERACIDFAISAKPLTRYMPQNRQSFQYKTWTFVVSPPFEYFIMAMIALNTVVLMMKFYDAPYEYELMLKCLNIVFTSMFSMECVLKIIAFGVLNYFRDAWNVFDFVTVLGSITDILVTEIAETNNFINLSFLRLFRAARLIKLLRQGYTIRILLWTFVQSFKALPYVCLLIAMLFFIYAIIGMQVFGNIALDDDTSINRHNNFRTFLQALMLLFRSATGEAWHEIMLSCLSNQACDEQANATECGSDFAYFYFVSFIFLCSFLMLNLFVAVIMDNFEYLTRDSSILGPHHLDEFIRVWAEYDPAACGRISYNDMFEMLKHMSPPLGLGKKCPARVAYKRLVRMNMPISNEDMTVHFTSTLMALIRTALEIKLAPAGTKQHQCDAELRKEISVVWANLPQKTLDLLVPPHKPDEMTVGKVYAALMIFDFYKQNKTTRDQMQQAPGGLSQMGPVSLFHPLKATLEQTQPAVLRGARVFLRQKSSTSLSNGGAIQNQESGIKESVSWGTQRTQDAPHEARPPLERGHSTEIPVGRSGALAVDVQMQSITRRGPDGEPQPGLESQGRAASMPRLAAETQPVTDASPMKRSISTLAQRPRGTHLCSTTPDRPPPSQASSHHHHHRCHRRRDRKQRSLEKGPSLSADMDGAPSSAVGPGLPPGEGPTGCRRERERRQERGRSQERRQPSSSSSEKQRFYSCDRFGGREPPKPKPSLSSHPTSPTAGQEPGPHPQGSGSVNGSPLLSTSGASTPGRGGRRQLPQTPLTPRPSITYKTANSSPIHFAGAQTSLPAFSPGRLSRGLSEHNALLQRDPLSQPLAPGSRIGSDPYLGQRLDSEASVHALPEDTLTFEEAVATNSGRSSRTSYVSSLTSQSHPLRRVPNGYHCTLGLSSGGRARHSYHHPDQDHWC
T1 sequence (P54289 25-956 partner limits assumed): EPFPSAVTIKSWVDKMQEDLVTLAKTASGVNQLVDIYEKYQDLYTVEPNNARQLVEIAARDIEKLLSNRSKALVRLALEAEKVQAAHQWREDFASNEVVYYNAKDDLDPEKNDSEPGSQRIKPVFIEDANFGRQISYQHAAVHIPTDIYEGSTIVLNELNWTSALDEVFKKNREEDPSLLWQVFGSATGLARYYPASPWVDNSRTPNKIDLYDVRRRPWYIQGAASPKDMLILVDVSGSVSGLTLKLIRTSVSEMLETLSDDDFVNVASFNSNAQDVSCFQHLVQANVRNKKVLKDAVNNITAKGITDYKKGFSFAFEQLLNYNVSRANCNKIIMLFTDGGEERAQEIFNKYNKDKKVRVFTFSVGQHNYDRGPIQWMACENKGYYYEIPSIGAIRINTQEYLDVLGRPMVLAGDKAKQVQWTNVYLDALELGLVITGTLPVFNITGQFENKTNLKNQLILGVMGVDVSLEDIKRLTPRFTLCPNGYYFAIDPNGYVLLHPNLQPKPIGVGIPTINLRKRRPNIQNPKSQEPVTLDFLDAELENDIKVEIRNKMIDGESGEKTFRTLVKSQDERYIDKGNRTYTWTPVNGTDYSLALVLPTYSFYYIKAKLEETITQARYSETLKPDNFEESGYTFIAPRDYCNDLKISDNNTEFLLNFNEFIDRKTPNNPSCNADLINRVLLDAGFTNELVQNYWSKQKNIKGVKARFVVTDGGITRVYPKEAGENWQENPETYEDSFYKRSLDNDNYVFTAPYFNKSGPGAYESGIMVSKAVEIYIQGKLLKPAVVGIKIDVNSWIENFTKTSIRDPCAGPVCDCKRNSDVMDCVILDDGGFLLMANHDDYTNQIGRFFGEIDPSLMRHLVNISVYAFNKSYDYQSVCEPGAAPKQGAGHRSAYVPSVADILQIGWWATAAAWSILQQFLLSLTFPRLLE
T1 sequence (P54289 957-1103 partner limits assumed): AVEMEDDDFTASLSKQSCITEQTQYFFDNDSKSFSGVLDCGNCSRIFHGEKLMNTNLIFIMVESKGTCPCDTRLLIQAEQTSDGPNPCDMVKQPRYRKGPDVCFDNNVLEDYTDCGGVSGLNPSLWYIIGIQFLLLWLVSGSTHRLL
T1 sequence (P54284 whole entry partner): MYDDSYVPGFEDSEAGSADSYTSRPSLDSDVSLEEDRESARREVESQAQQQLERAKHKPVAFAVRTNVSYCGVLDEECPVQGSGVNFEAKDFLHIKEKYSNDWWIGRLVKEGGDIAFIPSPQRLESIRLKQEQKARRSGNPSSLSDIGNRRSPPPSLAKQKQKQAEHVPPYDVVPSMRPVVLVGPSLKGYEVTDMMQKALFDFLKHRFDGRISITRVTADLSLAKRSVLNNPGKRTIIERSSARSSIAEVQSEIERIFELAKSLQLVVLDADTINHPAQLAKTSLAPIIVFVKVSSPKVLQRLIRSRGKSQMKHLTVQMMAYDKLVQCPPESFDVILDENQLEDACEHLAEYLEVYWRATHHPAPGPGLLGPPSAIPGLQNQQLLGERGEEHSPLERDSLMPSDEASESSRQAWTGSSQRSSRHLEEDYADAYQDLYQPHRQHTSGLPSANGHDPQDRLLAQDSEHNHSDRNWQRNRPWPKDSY

For `Cc1onc(-c2ccccc2)c1C(=O)N[C@@H](CC(C)C)C(=O)N[C@@H](Cc1ccc(OCc2ccccc2)cc1)C(=O)OC(C)(C)C` (relative stereo) [Example 131, [(S-(R*,R*)]-3-(4-Benzyloxy-phenyl)-2-{4-methyl-2-[(5-methyl-3-phenyl-isoxazole-4-carbonyl)amino]-pentanoylamino}-propionic acid tert-butyl ester], the “Inhibition of Calcium Flux in IMR-32 Cells % Inhibition at 10 μM” value came to 44%. Consider `CC(C)C[C@H](NC(=O)N1CCCCCC1)C(=O)N[C@@H](Cc1ccc(N(Cc2ccccc2)Cc2ccccc2)cc1)C(=O)NC(C)(C)C` (relative stereo) [Example 133, [S-(R*,R*)]-Azepane-1-carboxylic acid {1-[2-(4-dibenzylamino-phenyl)-1-tert-butylcarbamoyl-ethylcarbamoyl]-3-methyl-butyl}-amide], for which the “Inhibition of Calcium Flux in IMR-32 Cells % Inhibition at 1 μM” value is recorded as 54% and the “Inhibition of Calcium Flux in IMR-32 Cells % Inhibition at 10 μM” value amounted to 72%. Taken in the same sequence, the figures for `CC(C)C[C@H](NC(=O)N1CCCCCC1)C(=O)N[C@@H](Cc1ccc(C#Cc2ccccc2)cc1)C(=O)NC(C)(C)C` (relative stereo) [Example 134, [S(R*,R*)]-Azepane-1-carboxylic acid {1-[1-tert-butylcarbamoyl-2-(4-phenylethynyl-phenyl)-ethylcarbamoyl]-3-methyl-butyl}-amide] were 29% and 56%. On to `CC(C)C[C@H](NC(=O)N1CCOCC1)C(=O)N[C@@H](Cc1ccc(OCc2ccccc2)cc1)C(=O)N1CCCCC1` (relative stereo) [Example 151, [S(R*,R*)]-Morpholine-4-carboxylic acid {1-[1-(4-benzyloxy-benzyl)-2oxo-2-piperidin-1-ylethylcarbamoyl]-3-methyl-butyl}amide], for which the IC50 (in general, the point on the concentration scale where inhibition reaches its midpoint) was 4.3 µM.

On to `CC(C)C[C@H](NC(=O)N1CCCCCC1)C(=O)N[C@@H](Cc1ccc(OCc2ccccc2)cc1)C(=O)Nc1ccc(Br)cc1` (relative stereo) [Example 173, [S-(R*,R*)]-Azepane-1-carboxylic acid {1-[2-(4-benzyloxy-phenyl)-1-(4-bromophenylcarbamoyl)-ethylcarbamoyl]-3-methyl-butyl}-amide], for which the IC50 was found to be 0.28 µM. As for `CC(C)C[C@H](NC(=O)N1CCCCCC1)C(=O)N[C@@H](Cc1ccc(OCc2ccccc2)cc1)C(=O)Nc1ccc(N(C)C)cc1` (relative stereo) [Example 215, [S-(R*,R*)]-Azepane-1-carboxylic acid {1-[2-(4-benzyloxy-phenyl)-1-(4-dimethylamino-phenylcarbamoyl)-ethylcarbamoyl]-3-methyl-butyl}-amide], the “Inhibition of Calcium Flux in IMR-32 Cells % Inhibition at 1 μM” value is on record as 35% and the “Inhibition of Calcium Flux in IMR-32 Cells % Inhibition at 10 μM” value was 44%. Taken in the same sequence, the figures for `CC(=O)Nc1ccc(NC(=O)[C@H](Cc2ccc(OCc3ccccc3)cc2)NC(=O)[C@H](CC(C)C)NC(=O)N2CCCCCC2)cc1` (relative stereo) [Example 216, [S-(R*,R*)]-Azepane-1-carboxylic acid {1-[1-(4-acetylamino-phenylcarbamoyl)-2-(4-benzyloxy-phenyl)-ethylcarbamoyl]-3-methyl-butyl}-amide] were 16% and 37%. On the same counts, the results for `CC(C)C[C@H](NC(=O)N1CCCCCC1)C(=O)N[C@@H](Cc1ccc(OCc2ccccc2)cc1)C(=O)NCc1ccco1` (relative stereo) [Example 220, [S-(R*,R*)]-Azepane-1-carboxylic acid (1-{2-(4-benzyloxy-phenyl)-1-[(furan-2-ylmethyl)-carbamoyl]-ethylcarbamoyl}-3-methyl-butyl)-amide] are 40% and 88%. In the case of `CC(C)C[C@H](NC(=O)N1CCCCCC1)C(=O)N[C@@H](Cc1ccc(OCc2ccccc2)cc1)C(=O)NCc1ccc2c(c1)OCO2` (relative stereo) [Example 222, [S-(R*,R*)]-Azepane-1-carboxylic acid {1-[1-[(benzo[1,3]dioxol-5-ylmethyl)-carbamoyl]-2-(4-benzyloxy-phenyl)-ethylcarbamoyl]-3-methyl-butyl}-amide], the “Inhibition of Calcium Flux in IMR-32 Cells % Inhibition at 1 μM” value is 36% and the “Inhibition of Calcium Flux in IMR-32 Cells % Inhibition at 10 μM” value is given as 84%. On the same counts, the results for `COc1cc(NC(=O)[C@H](Cc2ccc(OCc3ccccc3)cc2)NC(=O)[C@H](CC(C)C)NC(=O)N2CCCCCC2)cc(OC)c1OC` (relative stereo) [Example 223, [S-(R*,R*)]-Azepane-1-carboxylic acid {-1-[2-(4-benzyloxy-phenyl)-1-(3,4,5-trimethoxy-phenylcarbamoyl)-ethylcarbamoyl]-3-methyl-butyl}-amide] are 36% and 74%. On the same counts, the results for `CC(C)C[C@H](NC(=O)N1CCCCCC1)C(=O)N[C@@H](Cc1ccc(OCc2ccccc2)cc1)C(=O)NCCc1c[nH]c2ccccc12` (relative stereo) [Example 224, [S-(R*,R*)]-Azepane-1-carboxylic acid (1-{2-(4-benzyloxy-phenyl)-1-[2-(1H-indol-3-yl)-ethylcarbamoyl]-ethylcarbamoyl}-3-methyl-butyl)-amide] are 50% and 87%. On the same counts, the results for `CC(C)C[C@H](NC(=O)N1CCCCCC1)C(=O)N[C@@H](Cc1ccc(OCc2ccccc2)cc1)C(=O)NCCc1ccc(O)cc1` (relative stereo) [Example 225, [S-(R*,R*)]-Azepane-1-carboxylic acid (1-{2-(4-benzyloxy-phenyl)-1-[2-(4-hydroxy-phenyl)-ethylcarbamoyl]-ethylcarbamoyl}-3-methyl-butyl)-amide] are 55% and 94%.

For `CCC(CO)NC(=O)[C@H](Cc1ccc(OCc2ccccc2)cc1)NC(=O)[C@H](CC(C)C)NC(=O)N1CCCCCC1` (relative stereo) [Example 226, [S-(R*,R*)]-Azepane-1-carboxylic acid {1-[2-(4-benzyloxy-phenyl)-1-(1-hydroxymethyl-propylcarbamoyl)-ethylcarbamoyl]-3-methyl-butyl}-amide], the “Inhibition of Calcium Flux in IMR-32 Cells % Inhibition at 1 μM” value is reported as 37% and the “Inhibition of Calcium Flux in IMR-32 Cells % Inhibition at 10 μM” value was 84%.

In the case of `CC(C)C[C@H](NC(=O)N1CCCCCC1)C(=O)N[C@@H](Cc1ccc(OCc2ccccc2)cc1)C(=O)N1CCN(CCOCCO)CC1` (relative stereo) [Example 228, [S-(R*,R*)]-Azepane-1-carboxylic acid-[1-(1-(4-benzyloxy-benzyl)-2-{4-[2-(2-hydroxy-ethoxy)-ethyl]-piperazin-1-yl}-2-oxo-ethylcarbamoyl)-3-methyl-butyl]-amide], the “Inhibition of Calcium Flux in IMR-32 Cells % Inhibition at 1 μM” value came out at 24% and the “Inhibition of Calcium Flux in IMR-32 Cells % Inhibition at 10 μM” value came out at 82%. Taken in the same sequence, the figures for `CCC(CO)(CO)NC(=O)[C@H](Cc1ccc(OCc2ccccc2)cc1)NC(=O)[C@H](CC(C)C)NC(=O)N1CCCCCC1` (relative stereo) [Example 229, [S-(R*,R*)]-Azepane-1-carboxylic acid {1-[2-(4-benzyloxy-phenyl)-1-(1,1-bis-hydroxymethyl-propylcarbamoyl)-ethylcarbamoyl]-3-methyl-butyl}-amide] were 30% and 80%.
